How the values were obtained:
POW virus = tested on: POW virus; set-up: species or system NIH Swiss mice; conditions: mouse, in vivo
[1] = iv via tail vein, five consecutive days, 16.7 μg/day, 10-day observation
WN-E-D3 = WN-E-D3 (West Nile virus, UniProt Q9Q6P4); assay type: binding

Row | Sequence | chance for survival (POW virus) | onset of disease / illness (POW virus) | toxicity to mice [1] | selected by binding (phage display) (WN-E-D3)
1 | RCCHPQCKEGKKCR (SEQ ID NO:157) [MP-100] | increases their chance for survival | delay in onset of disease | neither of the agents is toxic | –
2 | RCCREPCKEGRKCR [MP-106] | – | – | – | selected by binding to WN-E-D3
3 | RCCTLRCKEGKKCR [MP-108] | – | – | – | selected by binding to WN-E-D3
4 | RCCVSVCKEGKKCR [MP-107] | – | – | – | selected by binding to WN-E-D3
